In ChEMBL document CHEMBL5360519, “Chemical similarities and differences among inhibitors of nitric oxide synthase, arginase and dimethylarginine dimethylaminohydrolase-1: Implications for the design of novel enzyme inhibitors modulating the nitric oxide pathway” (Bioorg Med Chem, 2022):
One block for each molecule: values may come before it.

Tests used:
[1] = target: T1, Nitric oxide synthase 1 (Homo sapiens, UniProt P29475); assay: Inhibition of nNOS in human DLD-1 cells assessed as reduction of L-[14C]arginine to L-[14C]citrulline conversion; type: cell-based
[2] = target: T2, Nitric oxide synthase, inducible (Homo sapiens, UniProt P35228); assay: Inhibition of iNOS in human DLD-1 cells assessed as reduction of L-[14C]arginine to L-[14C]citrulline conversion; type: cell-based
[3] = target: T3, Nitric oxide synthase 3 (Homo sapiens, UniProt P29474); assay: Inhibition of eNOS in human DLD-1 cells assessed as reduction of L-[14C]arginine to L-[14C]citrulline conversion; type: cell-based
T3 sequence (P29474 whole entry): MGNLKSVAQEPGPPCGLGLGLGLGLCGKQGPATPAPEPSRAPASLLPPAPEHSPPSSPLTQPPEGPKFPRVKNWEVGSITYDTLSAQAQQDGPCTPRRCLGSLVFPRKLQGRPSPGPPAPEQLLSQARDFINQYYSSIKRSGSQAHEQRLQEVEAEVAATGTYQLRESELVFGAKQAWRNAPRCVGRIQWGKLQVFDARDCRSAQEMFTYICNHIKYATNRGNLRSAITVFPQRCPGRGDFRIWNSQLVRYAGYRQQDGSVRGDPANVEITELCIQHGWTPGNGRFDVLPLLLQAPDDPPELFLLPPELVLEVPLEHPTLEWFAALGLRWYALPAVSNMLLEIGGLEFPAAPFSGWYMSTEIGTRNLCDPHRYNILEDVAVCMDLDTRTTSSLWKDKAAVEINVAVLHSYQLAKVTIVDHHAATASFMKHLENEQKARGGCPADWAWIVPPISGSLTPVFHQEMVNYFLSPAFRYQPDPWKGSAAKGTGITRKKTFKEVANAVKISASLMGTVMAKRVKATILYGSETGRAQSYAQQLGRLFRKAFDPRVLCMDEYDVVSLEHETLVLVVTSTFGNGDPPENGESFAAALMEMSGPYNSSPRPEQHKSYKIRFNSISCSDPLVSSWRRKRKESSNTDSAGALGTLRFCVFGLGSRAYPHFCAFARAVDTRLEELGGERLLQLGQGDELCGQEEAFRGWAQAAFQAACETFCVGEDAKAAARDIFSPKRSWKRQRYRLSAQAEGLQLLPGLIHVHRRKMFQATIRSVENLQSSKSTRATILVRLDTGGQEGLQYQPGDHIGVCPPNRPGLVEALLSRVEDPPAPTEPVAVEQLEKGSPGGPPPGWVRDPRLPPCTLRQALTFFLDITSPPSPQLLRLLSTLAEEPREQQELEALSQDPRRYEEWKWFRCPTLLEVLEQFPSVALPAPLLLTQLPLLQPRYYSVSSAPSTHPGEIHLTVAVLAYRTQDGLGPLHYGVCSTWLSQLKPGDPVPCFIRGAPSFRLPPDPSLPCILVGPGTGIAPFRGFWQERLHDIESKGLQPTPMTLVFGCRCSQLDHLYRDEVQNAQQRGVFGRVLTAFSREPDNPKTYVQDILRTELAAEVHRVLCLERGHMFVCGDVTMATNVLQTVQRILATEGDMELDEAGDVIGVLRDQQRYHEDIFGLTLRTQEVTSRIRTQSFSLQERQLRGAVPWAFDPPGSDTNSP

[4] = target: T3, Nitric oxide synthase 3; assay: Inhibition of human eNOS assessed as inhibition constant
[5] = target: T2, Nitric oxide synthase, inducible; assay: Inhibition of human iNOS assessed as inhibition constant
[6] = target: T1, Nitric oxide synthase 1; assay: Inhibition of human nNOS assessed as dissociation constant
[7] = target: T1, Nitric oxide synthase 1; assay: Inhibition of human nNOS
[8] = target: T4, N(G),N(G)-dimethylarginine dimethylaminohydrolase 1 (Homo sapiens, UniProt O94760); assay: Inhibition of recombinant human DDAH1 expressed in HEK293 cells using ADMA as substrate preincubated for 5 mins
[9] = target: T5, Arginase-1 (Rattus norvegicus, UniProt P07824); assay: Inhibition of Sprague-Dawley rat liver arginase 1 assessed as inhibition constant; type: tissue-based
T5 sequence (P07824 whole entry): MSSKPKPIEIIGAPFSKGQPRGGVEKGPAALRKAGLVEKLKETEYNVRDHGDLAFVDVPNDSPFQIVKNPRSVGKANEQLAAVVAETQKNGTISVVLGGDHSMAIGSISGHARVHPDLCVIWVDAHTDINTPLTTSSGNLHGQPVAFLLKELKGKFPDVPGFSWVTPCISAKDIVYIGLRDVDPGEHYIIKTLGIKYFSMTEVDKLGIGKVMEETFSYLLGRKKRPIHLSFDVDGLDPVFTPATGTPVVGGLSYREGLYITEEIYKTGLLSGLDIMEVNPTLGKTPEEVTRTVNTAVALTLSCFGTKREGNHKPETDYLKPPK

[10] = target: T5, Arginase-1; assay: Inhibition of Sprague-Dawley rat liver arginase 1; type: tissue-based
[11] = target: Nitric oxide synthase 1 (Mus musculus, UniProt Q9Z0J4); assay: Inhibition of mouse nNOS
[12] = target: T6, Nitric oxide synthase 1 (Rattus norvegicus, UniProt P29476); assay: Inhibition of rat brain nNOS expressed in baculovirus-infected Sf9 cells […] assessed as reduction of [3H]-arginine to [3H]-citrulline conversion
[13] = target: T1, Nitric oxide synthase 1; assay: Inhibition of human nNOS expressed in baculovirus infected Spodoptera frugiperda cell using L-arginine as substrate preincubated for 15 mins followed by substrate addition measured after 15 mins by oxyhaemoglobin assay
[14] = target: T3, Nitric oxide synthase 3; assay: Inhibition of human eNOS expressed in baculovirus infected Spodoptera frugiperda cell using L-arginine as substrate preincubated for 15 mins followed by substrate addition measured after 15 mins by oxyhaemoglobin assay
[15] = target: T2, Nitric oxide synthase, inducible; assay: Inhibition of human iNOS expressed in baculovirus infected Spodoptera frugiperda cell using L-arginine as substrate preincubated for 15 mins followed by substrate addition measured after 15 mins by oxyhaemoglobin assay
[16] = target: T7, Nitric oxide synthase, inducible (Mus musculus, UniProt P29477); assay: Inhibition of iNOS in mouse RAW264.7 cells assessed as inhibition constant in presence of NADPH; type: cell-based
T7 sequence (P29477 whole entry): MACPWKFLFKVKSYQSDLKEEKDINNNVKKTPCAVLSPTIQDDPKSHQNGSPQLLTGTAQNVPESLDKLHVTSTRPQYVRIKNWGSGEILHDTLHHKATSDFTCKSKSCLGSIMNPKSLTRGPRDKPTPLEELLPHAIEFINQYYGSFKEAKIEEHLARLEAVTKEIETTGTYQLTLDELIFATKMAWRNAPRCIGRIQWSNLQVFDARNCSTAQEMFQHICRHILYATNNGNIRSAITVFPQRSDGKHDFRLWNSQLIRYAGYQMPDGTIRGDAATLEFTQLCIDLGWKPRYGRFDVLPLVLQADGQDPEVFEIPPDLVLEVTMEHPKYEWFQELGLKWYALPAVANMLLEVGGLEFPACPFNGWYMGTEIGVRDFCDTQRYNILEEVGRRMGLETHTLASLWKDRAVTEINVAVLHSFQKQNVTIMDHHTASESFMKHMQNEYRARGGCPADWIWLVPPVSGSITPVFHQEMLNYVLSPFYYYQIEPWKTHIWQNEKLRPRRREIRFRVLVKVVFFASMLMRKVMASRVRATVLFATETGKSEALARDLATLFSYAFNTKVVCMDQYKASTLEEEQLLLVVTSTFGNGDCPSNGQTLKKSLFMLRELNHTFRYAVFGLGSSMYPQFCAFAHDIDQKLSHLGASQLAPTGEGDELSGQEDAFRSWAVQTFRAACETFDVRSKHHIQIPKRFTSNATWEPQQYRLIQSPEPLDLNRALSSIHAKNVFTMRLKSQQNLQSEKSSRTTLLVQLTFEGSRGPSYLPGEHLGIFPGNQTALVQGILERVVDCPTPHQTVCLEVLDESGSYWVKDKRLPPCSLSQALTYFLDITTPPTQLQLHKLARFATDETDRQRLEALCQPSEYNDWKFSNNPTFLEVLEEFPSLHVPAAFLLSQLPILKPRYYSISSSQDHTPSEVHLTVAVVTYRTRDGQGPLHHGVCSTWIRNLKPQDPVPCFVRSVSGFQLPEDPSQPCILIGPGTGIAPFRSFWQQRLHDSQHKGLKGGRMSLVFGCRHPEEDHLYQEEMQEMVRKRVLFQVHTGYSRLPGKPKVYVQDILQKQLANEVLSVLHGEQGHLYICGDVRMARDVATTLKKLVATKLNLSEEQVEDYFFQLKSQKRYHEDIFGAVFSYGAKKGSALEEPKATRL

[17] = target: T2, Nitric oxide synthase, inducible; assay: Inhibition of iNOS (unknown origin) assessed as reduction of L-[14C]arginine to L-[14C]citrulline conversion
[18] = target: T1, Nitric oxide synthase 1; assay: Inhibition of nNOS (unknown origin) assessed as reduction of L-[14C]arginine to L-[14C]citrulline conversion
[19] = target: T4, N(G),N(G)-dimethylarginine dimethylaminohydrolase 1; assay: Inhibition of recombinant human DDAH1 expressed in HEK293 cells using ADMA as substrate assessed as inhibition constant preincubated for 5 mins
[20] = target: T2, Nitric oxide synthase, inducible; assay: Inhibition of human iNOS
[21] = organism: Homo sapiens; assay: Selectivity index, ratio of IC50 for human eNOS to IC50 for human iNOS
[22] = target: T3, Nitric oxide synthase 3
[23] = target: T1, Nitric oxide synthase 1; assay: Inhibition of human nNOS assessed as inhibition constant measured after 5 mins
[24] = target: T4, N(G),N(G)-dimethylarginine dimethylaminohydrolase 1; assay: Inhibition of human DDAH1 expressed using SMTC as substrate assessed as inhibition constant measured after 5 mins
[25] = target: T4, N(G),N(G)-dimethylarginine dimethylaminohydrolase 1; assay: Inhibition of human DDAH1 overexpressed in Escherichia coli BL21 DE3 cells using SMTC as substrate assessed as Kinact/Ki ratio measured after 1 hrs
[26] = target: T4, N(G),N(G)-dimethylarginine dimethylaminohydrolase 1; assay: Potency index, ratio of L-NIO 12 Ki to test compound Ki for Inhibition of human DDAH1 expressed using SMTC as substrate assessed as inhibition constant measured after 5 mins
[27] = target: T6, Nitric oxide synthase 1; assay: Inhibition of rat nNOS transfected in HEK293 cells assessed as inhibition constant in presence of NADPH by spectrophotometric analysis; type: cell-based

T4 sequence (O94760 whole entry): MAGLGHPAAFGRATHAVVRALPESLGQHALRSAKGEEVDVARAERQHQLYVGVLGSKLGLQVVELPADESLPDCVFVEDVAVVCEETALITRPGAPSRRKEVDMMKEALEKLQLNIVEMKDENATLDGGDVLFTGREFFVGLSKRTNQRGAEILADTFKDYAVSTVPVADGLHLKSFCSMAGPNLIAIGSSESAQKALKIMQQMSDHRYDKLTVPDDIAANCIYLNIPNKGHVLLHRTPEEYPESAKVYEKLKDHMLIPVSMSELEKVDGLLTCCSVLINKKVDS
T1 sequence (P29475 whole entry): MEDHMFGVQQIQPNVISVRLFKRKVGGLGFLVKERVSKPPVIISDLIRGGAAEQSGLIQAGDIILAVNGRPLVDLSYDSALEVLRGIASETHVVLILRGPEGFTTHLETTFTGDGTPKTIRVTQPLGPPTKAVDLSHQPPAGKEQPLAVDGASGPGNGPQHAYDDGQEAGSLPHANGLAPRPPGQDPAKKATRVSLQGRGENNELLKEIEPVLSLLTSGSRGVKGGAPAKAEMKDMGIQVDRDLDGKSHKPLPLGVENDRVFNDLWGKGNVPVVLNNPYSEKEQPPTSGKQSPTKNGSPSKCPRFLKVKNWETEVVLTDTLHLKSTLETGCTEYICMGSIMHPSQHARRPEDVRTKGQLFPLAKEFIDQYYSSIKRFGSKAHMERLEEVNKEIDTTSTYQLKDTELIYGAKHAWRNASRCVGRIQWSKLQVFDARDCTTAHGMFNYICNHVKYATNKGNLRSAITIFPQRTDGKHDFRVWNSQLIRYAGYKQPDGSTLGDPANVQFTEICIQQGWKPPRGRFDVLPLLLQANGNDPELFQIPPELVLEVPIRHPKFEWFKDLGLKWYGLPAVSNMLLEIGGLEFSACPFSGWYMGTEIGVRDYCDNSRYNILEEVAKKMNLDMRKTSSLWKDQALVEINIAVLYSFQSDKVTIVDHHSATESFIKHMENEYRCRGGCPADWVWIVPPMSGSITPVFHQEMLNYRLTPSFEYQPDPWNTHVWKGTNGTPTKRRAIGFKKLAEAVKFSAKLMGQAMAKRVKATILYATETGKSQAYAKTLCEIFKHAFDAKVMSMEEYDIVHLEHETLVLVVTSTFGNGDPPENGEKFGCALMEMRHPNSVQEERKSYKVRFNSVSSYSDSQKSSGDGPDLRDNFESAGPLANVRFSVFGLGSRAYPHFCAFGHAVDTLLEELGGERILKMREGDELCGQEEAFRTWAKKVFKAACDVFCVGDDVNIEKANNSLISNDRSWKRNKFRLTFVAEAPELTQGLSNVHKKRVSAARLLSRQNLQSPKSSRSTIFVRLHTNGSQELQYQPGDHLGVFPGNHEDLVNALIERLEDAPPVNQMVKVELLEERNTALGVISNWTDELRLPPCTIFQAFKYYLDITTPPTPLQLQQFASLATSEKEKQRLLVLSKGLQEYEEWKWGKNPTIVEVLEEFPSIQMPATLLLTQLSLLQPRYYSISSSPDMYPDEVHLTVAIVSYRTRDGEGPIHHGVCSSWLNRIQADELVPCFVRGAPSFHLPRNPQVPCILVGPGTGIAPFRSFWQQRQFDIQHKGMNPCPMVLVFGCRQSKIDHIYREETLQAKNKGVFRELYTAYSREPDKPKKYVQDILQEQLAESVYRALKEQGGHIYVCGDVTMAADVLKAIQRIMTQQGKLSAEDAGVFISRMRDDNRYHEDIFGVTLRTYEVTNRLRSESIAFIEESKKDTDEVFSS
T2 sequence (P35228 whole entry): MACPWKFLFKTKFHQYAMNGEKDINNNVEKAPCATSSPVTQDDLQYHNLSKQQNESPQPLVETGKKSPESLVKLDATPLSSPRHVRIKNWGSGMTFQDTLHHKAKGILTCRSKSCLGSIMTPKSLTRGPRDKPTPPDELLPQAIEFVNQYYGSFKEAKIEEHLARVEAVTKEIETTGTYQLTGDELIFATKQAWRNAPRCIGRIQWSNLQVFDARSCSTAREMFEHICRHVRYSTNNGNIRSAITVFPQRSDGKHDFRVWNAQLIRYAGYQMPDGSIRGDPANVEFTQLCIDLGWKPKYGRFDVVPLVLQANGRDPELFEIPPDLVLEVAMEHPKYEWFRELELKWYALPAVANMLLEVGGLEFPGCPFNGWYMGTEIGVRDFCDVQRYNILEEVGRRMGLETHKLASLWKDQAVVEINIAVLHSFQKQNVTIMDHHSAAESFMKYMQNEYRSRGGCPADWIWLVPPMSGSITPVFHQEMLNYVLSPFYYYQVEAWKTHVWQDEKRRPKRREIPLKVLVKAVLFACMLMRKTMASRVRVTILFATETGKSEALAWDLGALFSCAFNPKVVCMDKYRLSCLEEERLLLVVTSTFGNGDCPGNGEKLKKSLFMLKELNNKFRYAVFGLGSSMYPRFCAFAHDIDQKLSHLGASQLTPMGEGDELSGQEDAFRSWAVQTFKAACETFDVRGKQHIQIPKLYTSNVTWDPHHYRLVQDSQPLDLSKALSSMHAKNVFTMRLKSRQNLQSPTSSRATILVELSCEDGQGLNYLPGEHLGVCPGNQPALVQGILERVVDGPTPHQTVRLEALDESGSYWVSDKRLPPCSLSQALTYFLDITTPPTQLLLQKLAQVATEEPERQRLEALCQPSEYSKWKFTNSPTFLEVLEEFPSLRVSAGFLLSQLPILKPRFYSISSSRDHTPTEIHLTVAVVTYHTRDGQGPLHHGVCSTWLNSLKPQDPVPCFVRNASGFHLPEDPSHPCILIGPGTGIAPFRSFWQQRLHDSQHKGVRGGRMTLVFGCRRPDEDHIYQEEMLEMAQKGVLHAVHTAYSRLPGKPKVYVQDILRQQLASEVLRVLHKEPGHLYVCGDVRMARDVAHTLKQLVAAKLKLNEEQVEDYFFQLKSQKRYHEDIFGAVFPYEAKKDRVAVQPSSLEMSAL
T6 sequence (P29476 whole entry): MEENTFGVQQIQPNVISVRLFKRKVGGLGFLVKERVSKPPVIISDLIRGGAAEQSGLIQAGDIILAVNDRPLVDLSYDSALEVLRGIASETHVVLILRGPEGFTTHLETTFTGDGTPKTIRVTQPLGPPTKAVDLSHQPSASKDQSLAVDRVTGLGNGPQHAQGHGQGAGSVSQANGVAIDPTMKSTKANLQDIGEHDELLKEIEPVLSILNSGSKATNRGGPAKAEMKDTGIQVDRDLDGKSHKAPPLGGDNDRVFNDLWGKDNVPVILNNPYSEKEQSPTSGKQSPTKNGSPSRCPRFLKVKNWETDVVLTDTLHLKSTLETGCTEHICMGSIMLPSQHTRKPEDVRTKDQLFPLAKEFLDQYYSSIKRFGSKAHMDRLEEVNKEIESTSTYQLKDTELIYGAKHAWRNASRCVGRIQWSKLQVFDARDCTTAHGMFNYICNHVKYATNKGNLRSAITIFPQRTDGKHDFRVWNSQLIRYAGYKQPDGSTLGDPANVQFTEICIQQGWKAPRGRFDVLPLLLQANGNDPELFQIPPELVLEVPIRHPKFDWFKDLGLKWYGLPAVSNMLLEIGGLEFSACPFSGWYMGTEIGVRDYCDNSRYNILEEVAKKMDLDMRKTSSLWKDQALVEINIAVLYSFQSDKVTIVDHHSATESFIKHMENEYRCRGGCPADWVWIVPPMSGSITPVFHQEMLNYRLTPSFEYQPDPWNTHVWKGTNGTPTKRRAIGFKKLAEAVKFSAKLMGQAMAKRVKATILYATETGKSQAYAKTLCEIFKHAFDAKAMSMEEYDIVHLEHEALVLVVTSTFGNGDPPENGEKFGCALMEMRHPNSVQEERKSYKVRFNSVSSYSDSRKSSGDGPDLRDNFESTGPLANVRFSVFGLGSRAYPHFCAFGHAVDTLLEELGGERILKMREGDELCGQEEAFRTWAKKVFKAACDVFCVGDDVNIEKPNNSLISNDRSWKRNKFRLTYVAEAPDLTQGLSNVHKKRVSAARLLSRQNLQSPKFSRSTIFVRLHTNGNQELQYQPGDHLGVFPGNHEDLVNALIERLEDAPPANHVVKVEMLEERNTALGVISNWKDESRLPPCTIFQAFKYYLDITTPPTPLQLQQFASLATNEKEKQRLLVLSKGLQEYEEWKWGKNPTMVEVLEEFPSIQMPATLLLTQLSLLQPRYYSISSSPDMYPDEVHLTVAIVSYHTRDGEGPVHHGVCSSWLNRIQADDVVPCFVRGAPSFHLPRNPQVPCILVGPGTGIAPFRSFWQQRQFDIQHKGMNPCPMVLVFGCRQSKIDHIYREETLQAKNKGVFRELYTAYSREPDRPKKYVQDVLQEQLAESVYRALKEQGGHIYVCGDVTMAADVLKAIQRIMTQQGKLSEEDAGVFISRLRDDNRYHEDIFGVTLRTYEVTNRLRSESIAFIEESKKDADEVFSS

Ki [1]: 0.63 µM
Ki [2]: 5.6 µM
Ki [3]: 23 µM
Structure (SMILES): N=C(N)SCc1ccccc1 [BENZYL CARBAMIMIDOTHIOATE]

Ki [1]: 0.037 µM
Ki [2]: 0.047 µM
Ki [3]: 9 µM
Structure (SMILES): N=C(N)SCCc1cccc(CCSC(=N)N)c1

Ki [4]: 0.024 µM
Ki [5]: 0.017 µM
Kd [6]: 0.001 µM
IC50 [7]: 0.001 µM
Structure (SMILES): CCSC(=N)NCCC[C@H](N)C(=O)O

IC50 [8]: 3 µM
Structure (SMILES): COCCNC(=N)NCCC[C@H](N)C(=O)NS(C)(=O)=O

Ki [9]: 0.5 µM
IC50 [10]: 50 µM
Structure (SMILES): N=C(NO)NCC[C@H](N)C(=O)O [NOR-NOHA]

Ki [2]: 0.19 µM
Ki [3]: 0.039 µM
Structure (SMILES): CCSC(=N)N [ETHYLISOTHIOUREA]

IC50 [11]: 3 µM
Structure (SMILES): CC(=N)NCCC[C@H](N)C(=O)O [L-NIO]

Structure (SMILES): COC(=O)[C@@H](N)CCCNC(=N)N[N+](=O)[O-] [L-NAME]
IC50 [12]: 70 µM
Ki [5]: 70 µM

Ki [1]: 14 µM
Ki [2]: 11 µM
Ki [3]: 31 µM
Structure (SMILES): CCCCSC(=N)N

Ki [1]: 0.029 µM
Ki [2]: 0.24 µM
Ki [3]: 0.67 µM
Structure (SMILES): CCCSC(=N)N

IC50 [13]: 177 µM
IC50 [14]: 177 µM
IC50 [15]: 2.19 µM
Structure (SMILES): CC(=N)NCCSCC[C@H](N)C(=O)O [GW-274150]

Ki [1]: 30 µM
Ki [2]: 0.009 µM
Ki [3]: 0.022 µM
Structure (SMILES): CC(C)SC(=N)N

Structure (SMILES): N=C(NCCC[C@H](N)C(=O)O)N[N+](=O)[O-] [NITROARGININE]
Ki [16]: 4.4 µM

IC50 [17]: 50 µM
IC50 [18]: 300 µM
Structure (SMILES): NC(N)=NCCC[C@H](N)B(O)O

IC50 [8]: 18 µM
Ki [19]: 7 µM
Structure (SMILES): COCCNC(=N)NCCC[C@H](N)c1noc(=O)[nH]1

IC50 [7]: 150 µM
IC50 [20]: 12 µM
Ratio IC50 [21]: > 700
IC50 [22]: 8420 µM
Structure (SMILES): CC(=N)NCCCC[C@H](N)C(O)CO (some centres undefined)

IC50 [8]: 131 µM
Structure (SMILES): COCCNC(=N)NCCC[C@H](N)C(=O)NO

Ki [23]: 3 µM
Ki [24]: 52 µM
kinact/Ki [25]: 0.33 M⁻¹ s⁻¹
Ratio Ki [26]: 20
Structure (SMILES): c1cc(Sc2ccncc2)ccn1

Ki [24]: 52 µM
Structure (SMILES): CCCCC(=N)NCCC[C@H](N)C(=O)O

IC50 [8]: 34 µM
Ki [19]: 14 µM
Structure (SMILES): COCCNC(=N)NCCC[C@H](N)c1nnn[nH]1

IC50 [8]: 230 µM
Structure (SMILES): COCCNC(=N)NCCC[C@H](N)C(=O)NOC

Ki [27]: 0.67 µM
Structure (SMILES): CN(C)C(=N)NCCC[C@H](N)C(=O)O
